Data set [1] has as its system bone fracture pain, paw withdrawal threshold. In words: Mouse bone fracture model, intraperitoneal. The data set is classed as in vivo. The source says: Each group had n=10 mice.
Data set [2] deals with surgical pain (paw incision), paw withdrawal threshold. In words: Mouse paw incision model, morphine potentiation.
Description: Manual testing with von Frey hairs was performed at the times indicated in the graphs. The animals were placed in individual Perspex boxes on a raised metal mesh for at least 40 min before the test. A series of graduated von Frey hairs (0.07, 0.16, 0.4, 0.6, and 1.0 g) were applied to the plantar surface of the left paw, in sequence. Each von Frey hair was applied 10 times on a one-sec-on-one-sec-off protocol, with each hair slightly bent. A paw withdrawal upon this hind-paw stimulation for a given von Frey hair registering 5 responses out of 10 trials was recorded the paw withdrawal threshold (PWT). A baseline PWT was determined each day for 3 days before surgery. […] In addition, the PWT was determined before dosing and 1, 2, and 4 hours after dosing.
In both cases, morphine was dosed at 1 mg/kg IP.
Data set [3] relates to TLR4 (LPS-stimulated NO production, BV-2 mouse microglia cell line). Nature of the data set: NO assay: inhibition of LPS-induced NO production in BV-2 microglia (iNOS cellular). Format: cell-based. As to conditions: Mus musculus. The source says: NO assay: Microglia are the resident cells of the innate immune system in the central nervous system, and TLR4 is primarily expressed by microglia rather than astrocytes or neurons in the CNS. Given this expression profile, the BV-2 mouse microglia cell line was used as the model system of microglia, as these cells recapitulate many of the responses of primary microglia with high fidelity. TLR4 activation induces the downstream production of the inflammatory factor NO, which contributes to the development of neuropathic pain and drug addiction. BV-2 murine microglia were grown in supplemented DMEM (including 10% FBS, 50 unit mL^−1 penicillin, 50 μg·mL^−1 streptomycin). BV-2 cells were detached from the flask by trypsin digestion when ˜80% confluence was reached. Cells were seeded at a density of 4×10^4 cells per well in 96-well plates. After overnight incubation, media was aspirated and changed to DMEM media without FBS. Cells were then treated with LPS (200 ng/ml) and different concentrations of the testing compounds. After 24 h treatment, 100 μL of supernatant media was removed after cells were treated for 24 h and added to flat black 96-well microfluor plates (Thermo Scientific, MA, USA). Subsequently, 10 μL of 2, 3-diaminonaphthalene (0.05 mg·mL^−1 in 0.62 M HCl) was added to each well and incubated for 15 min. The reaction was quenched by addition of 5 μL of 3 M NaOH and the plate was read on a Beckman Coulter DTX880 reader (Fullerton, Calif., USA) with excitation at 360 nm and emission at 430 nm.
N chain NTX: This experimentation involved an in vitro assay where mouse BV2 cells were treated with LPS, which results in the release of nitric oxide (NO). Blockade of TLR4 activity results in reduced NO production. Therefore, IC50 values were determined for test compounds that antagonize TLR4 activity. A series of test compounds were prepared, with different N-alkyl chains replacing the cyclopropyl methyl found in naltrexone. Cell viability was also measured by a standard assay, e.g., measurement of the release of cytoplasm-resident enzymes in the tissue culture supernatant or media to detect cell loss/lysis/rupture. A dose-inhibition curve was generated by testing the TLR4 antagonist compound for the ability to block LPS-stimulated iNOs induction. In FIG. 7, the inhibition levels across a range of doses are graphed, along with a regression curve. The IC50 value—50% inhibition level—is also provided, graphed against the length of the alkyl chain. Note that with longer N-alkyl chain the IC50 was reduced, although cell viability became problematic.
FIGS. 8B to 8D show the results of the inhibition of NO production from LPS-stimulated BV2 cells using the assay described above.

A further data set deals with iNOS (Homo sapiens, UniProt P35228). In words: iNOS enzyme inhibition. Format: biochemical.
The target in a further data set is hERG (Homo sapiens, UniProt Q12809). Nature of the data set: hERG inhibition. On the technique in general: The hERG channel carries a current that helps repolarise heart muscle cells.
The subject of data set [4] is off-target screening panel. In words: Off-target inhibition screening (whole panel). As to conditions: 10 μM test concentration; hit = inhibition at or above the 50% level. The source says: (§1) In addition to the animal studies presented above in Examples 1-9, the results of in vitro testing of several of the compounds (i.e., XT-203, XT-204, and XT-206 through XT-217) are shown in Table 5 and Table 6. […]. Nine additional compounds had two or fewer off-target hits in the screening. […] These compounds spanned all of the tested N-modification classes. […]. Thus, the medicinal chemistry approach taken in this series of fluorinated compounds can yield low off-target activity and longer metabolic lifetime while preserving TLR4 antagonism. It is appreciated that further development of compounds in this class, using techniques known to those skilled in the art, may yield additional compounds with desirable pharmacologic and toxicologic characteristics.

Data set [5] in a line: Hepatocyte elimination of parent compound, spread across species. Format: in vitro ADME. As to conditions: mouse, rat, dog, monkey, human, hepatocytes; lowest to highest species value; read-out: range of hepatocyte elimination half-life values across species. As to the method:
Hepatocyte Elimination: (+)-NTX, AK-17 and XT-203 were incubated with cultured hepatocytes from the species listed in FIG. 9 and Table 4, and samples of the culture supernatant were collected over time. Samples were concentrated by nitrogen drying followed by reconstitution with 40% methanol for LC/MS analysis The data points were analyzed using the WinNonLin pharmacokinetics software package, and a half-life was determined that describes the rate of parent elimination. […].
as §1

A short description of data set [6]: in vitro. The note with it: mouse, hepatocytes.
Data set [7] in a line: in vitro. As to conditions: rat, cultured hepatocytes.
Data set [8] can be described thus: in vitro. The note with it: dog, cultured hepatocytes.
Data set [9] in a line: in vitro. As to conditions: monkey, cultured hepatocytes.
Data set [10] is described as follows: in vitro. The note with it: human, cultured hepatocytes.
The next data set deals with Human hepatocytes. Nature of the data set: Hepatocyte elimination of parent compound. As to conditions: cultured hepatocytes.
The target of another data set is T1, Adrenergic α2A (Homo sapiens, UniProt P08913).
T1 sequence (P08913 1-465): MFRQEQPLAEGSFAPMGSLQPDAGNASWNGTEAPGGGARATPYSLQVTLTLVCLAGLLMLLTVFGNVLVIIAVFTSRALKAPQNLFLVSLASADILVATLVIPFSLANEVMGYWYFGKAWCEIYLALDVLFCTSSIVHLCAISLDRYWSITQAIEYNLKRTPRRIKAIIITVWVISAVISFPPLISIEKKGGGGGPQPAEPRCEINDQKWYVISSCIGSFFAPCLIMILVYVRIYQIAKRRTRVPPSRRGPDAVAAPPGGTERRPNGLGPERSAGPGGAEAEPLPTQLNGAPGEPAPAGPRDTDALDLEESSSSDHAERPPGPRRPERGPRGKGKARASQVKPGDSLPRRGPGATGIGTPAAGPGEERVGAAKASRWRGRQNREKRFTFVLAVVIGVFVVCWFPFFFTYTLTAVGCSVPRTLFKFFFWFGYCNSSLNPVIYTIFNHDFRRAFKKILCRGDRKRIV
In words: Off-target screening. The data set is classed as binding. As to conditions: 10 μM.
From the text: as §1

The next data set deals with Adenosine A2A (Homo sapiens, UniProt P29274). Nature of the data set: Off-target screening. Format: binding.
From the text: as §1

The target in a further data set is Cannabinoid CB1 (Homo sapiens, UniProt P21554). Nature of the data set: Off-target screening. The data set is classed as binding.
From the text: as §1

In data set [11] the test system is CCI neuropathic pain (mechanical allodynia). In words: Rat CCI model, oral and subcutaneous phases (Study R042). The note with it: gabapentin 200 mg/kg. The data set is classed as in vivo. On the procedure:
Rat chronic constriction injury model-Oral and subcutaneous (+)-NTX and XT-203: An efficacy study was conducted in the rat chronic constriction injury (CCI) model (Study R042). The study design comprised two phases. A five-day period of oral (PO) dosing and behavioral testing was followed by a five-day period of subcutaneous (SC) dosing, with a two-day washout period between these periods. Dosing on each day was performed three times a day (TID). Behavioral testing for mechanical allodynia was performed on the first and fifth days of dosing, at three times on those days: before the first dose of the day, 30 minutes after the first dose of the day, and 30 minutes after the second dose of the day. Thus, day 5 testing is designated as pre5.1 (before the first dose of the day), 5.1 (fifth day, after first dose) or 5.2 (fifth day, after second dose). On day 5 of the subcutaneous dosing phase, a second testing period was introduced 60 minutes after the second dose. (+)-NTX (6, 18, and 60 mg/kg) and XT-203. Mechanical allodynia was tested manually, using the Chaplan up-down testing method. The results are shown in FIGS. 10A and 10B, with the oral (PO) phase presented as the first pair of graphs. After the two-day washout, the subcutaneous (SC) phase was carried out with the results shown in the graphs at FIGS. 10C and 10D.
The CCI model was well established in this study, with allodynic response thresholds between 2 and 3 grams (presurgical baseline thresholds at 15 g, not shown). […] This is especially remarkable given the extremely rapid metabolism and pharmacokinetics of (+)-NTX (see FIG. 9). Here, the dampening of efficacy due to lack of significant amounts of parent compound is particularly evident. Thus, the appropriate dose-ranging conditions in animal models should reflect (+)-NTX serum levels during efficacy testing, to match pharmacokinetics with pharmacodynamics. […] Efficacy is only observed after the first dose on day 5. Thus, changes designed to improve compound stability do provide improved efficacy.

Setting [12] is: Microglia, Table 6, unit inferred, footnote: Indicator of TL4 antagonism.
[13] abbreviates: LPS (200 ng/ml), 24 h, BV-2 cells, Table 3.
The mark [14] stands for this setting: read-out: iNOS enzyme, Table 6, unit inferred.

SMILES strings stand for the structures. Read-outs that look alike come from different tables or passages of the source.

iNOS, sequence (P35228 whole entry): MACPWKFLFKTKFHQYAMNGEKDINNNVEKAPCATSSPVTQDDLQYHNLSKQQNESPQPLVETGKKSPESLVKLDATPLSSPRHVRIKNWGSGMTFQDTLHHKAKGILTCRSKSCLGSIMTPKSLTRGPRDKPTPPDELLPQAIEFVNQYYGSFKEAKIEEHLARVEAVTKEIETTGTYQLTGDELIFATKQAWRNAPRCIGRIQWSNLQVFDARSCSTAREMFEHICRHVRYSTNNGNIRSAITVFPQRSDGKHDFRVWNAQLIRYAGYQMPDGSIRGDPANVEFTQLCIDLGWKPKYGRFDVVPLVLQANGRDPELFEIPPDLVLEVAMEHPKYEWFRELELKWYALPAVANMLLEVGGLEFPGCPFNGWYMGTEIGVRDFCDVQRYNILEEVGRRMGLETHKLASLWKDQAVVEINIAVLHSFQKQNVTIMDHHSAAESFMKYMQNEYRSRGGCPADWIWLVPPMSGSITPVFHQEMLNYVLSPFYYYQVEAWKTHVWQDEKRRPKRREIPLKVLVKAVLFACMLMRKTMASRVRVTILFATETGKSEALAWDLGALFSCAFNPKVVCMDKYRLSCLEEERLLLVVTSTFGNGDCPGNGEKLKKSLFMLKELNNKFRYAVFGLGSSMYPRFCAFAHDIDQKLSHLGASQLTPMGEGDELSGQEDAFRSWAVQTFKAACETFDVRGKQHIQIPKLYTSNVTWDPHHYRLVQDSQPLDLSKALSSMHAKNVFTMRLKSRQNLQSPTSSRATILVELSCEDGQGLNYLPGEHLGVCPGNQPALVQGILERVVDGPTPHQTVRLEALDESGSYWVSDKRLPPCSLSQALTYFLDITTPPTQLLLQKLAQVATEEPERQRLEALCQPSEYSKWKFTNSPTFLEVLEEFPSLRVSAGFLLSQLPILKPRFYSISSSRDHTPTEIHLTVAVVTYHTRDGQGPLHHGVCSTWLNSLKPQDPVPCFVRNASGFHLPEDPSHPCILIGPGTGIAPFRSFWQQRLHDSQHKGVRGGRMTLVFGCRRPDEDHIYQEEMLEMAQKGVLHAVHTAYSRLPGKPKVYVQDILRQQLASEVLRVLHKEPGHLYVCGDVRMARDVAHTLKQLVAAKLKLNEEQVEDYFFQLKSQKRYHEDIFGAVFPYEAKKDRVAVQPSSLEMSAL
hERG, sequence (Q12809 whole entry): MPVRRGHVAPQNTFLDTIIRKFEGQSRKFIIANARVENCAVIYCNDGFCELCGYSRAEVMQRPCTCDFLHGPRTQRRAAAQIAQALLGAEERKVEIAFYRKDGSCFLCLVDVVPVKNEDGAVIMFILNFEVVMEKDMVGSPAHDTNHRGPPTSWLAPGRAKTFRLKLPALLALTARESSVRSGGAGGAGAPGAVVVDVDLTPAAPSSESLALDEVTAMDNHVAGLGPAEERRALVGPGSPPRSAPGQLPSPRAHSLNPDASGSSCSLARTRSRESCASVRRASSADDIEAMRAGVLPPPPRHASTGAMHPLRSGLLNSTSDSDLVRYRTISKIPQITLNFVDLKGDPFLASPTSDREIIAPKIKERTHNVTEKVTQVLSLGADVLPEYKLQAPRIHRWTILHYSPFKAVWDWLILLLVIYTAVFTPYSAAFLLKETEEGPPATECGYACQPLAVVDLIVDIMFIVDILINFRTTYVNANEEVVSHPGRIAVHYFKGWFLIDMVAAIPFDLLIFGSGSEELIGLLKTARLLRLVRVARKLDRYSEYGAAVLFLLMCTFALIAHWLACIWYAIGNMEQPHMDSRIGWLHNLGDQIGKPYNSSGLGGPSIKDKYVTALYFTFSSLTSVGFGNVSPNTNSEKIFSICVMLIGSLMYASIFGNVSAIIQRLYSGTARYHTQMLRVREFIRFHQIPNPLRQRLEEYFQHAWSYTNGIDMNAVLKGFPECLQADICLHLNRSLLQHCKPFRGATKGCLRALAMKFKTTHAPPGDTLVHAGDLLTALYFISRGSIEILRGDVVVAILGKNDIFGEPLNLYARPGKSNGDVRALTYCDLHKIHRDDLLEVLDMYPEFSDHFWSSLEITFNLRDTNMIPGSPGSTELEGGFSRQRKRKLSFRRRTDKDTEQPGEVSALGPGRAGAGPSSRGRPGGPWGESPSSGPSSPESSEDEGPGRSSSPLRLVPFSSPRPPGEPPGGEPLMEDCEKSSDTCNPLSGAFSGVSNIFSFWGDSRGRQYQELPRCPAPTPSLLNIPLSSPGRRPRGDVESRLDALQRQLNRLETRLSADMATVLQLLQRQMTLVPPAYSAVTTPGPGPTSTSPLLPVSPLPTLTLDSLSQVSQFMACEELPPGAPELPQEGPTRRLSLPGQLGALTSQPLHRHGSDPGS
Cannabinoid CB1, sequence (P21554 whole entry): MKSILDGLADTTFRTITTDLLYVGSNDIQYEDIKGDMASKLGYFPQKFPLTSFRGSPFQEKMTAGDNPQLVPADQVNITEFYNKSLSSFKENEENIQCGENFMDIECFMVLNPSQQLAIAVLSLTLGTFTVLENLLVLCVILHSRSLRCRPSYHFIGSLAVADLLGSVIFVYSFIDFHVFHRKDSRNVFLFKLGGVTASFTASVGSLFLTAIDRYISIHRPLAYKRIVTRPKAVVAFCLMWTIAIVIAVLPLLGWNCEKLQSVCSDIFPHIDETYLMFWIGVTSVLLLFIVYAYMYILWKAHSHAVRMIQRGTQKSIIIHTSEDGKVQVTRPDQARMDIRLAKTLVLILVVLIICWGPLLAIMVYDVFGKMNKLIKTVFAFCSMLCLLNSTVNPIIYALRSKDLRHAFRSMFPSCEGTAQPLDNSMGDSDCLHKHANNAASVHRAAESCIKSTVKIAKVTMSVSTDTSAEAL
Adenosine A2A, sequence (P29274 whole entry): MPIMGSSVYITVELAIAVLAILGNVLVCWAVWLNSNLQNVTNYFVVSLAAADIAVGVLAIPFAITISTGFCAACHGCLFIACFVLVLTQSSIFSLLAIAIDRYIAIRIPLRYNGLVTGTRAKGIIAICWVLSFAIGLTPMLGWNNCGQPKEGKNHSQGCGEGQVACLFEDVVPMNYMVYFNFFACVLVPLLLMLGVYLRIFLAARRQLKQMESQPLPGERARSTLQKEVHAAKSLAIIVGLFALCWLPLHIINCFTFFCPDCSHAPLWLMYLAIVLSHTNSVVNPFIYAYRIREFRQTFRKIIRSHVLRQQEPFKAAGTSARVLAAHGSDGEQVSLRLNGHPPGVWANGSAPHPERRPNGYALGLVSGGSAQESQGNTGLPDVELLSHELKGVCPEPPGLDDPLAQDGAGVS

Turning to `CN1CC[C@]23c4c5ccc(O)c4O[C@H]2[C@@H](O)C=C[C@H]3[C@H]1C5` [Morphine, morphine], the “effect on PWT in mouse fracture pain model” value in data set [1] (IP, morphine 1, 2, 3, 5 mg/kg, XT-203 6, 10, 18, 30 mg/kg, (+)-NTX 6, 18, 30, 60 mg/kg, dose-dependent) is “increased the PWT”. Also, the “behaviour observed at 5 mg/kg” value in data set [1] (mouse fracture model, 5 mg/kg IP, 1 hour after dosing, gone from two hours onward) is “some mice showing walking anti-clockwise”. For the same molecule, in [2] (morphine 1 mg/kg IP alone), the “PWT, 2 hours after dosing” value stood at 0.11 ± 0.033 g and the “PWT, 4 hours after dosing” value turned out to be 0.10 ± 0.014 g. Also, in data set [2] (morphine 1 mg/kg IP alone, baseline 0.11±0.015 g), the “PWT, 1 hour after dosing” value came to 0.20 ± 0.046 g. The “adverse effects during observation” value in [2] (morphine dose groups) was “No significant adverse effects”.

As usually defined, the half-life is the time in which the quantity being followed falls by half. Take `COc1ccc2c3c1O[C@@H]1C(F)CCC4[C@H](C2)N(C(=O)C2CC2)CC[C@]341` (stereo partly drawn) [XT-206]: the IC50 (in [3] (setting [12]); in [3] (setting [13]); against iNOS; on iNOS (setting [14]); against hERG) was more than 10 µM each time. Also, in [4], the “off-target hits in the screening” value is “no off-target hits and none”. Also, the half-life is 14.4 to 120 min in data set [5]; 18.3 min in the data set “in vitro [6]”; 14.4 min in “in vitro [7]”; 80.8 min in “in vitro [8]”; 15.5 min in the data set “in vitro [9]”; 120 min in the data set “in vitro [10]”. The “parent duration in human hepatocytes relative to XT-203” value with Human hepatocytes is listed as “longer parent duration than XT-203”.

As to `COc1ccc2c3c1O[C@@H]1C(F)CCC4[C@H](C2)N(C(=O)c2ccccc2)CC[C@]341` (stereo partly drawn) [XT-207], the IC50 (in data set [3] (setting [12]); in data set [3] (setting [13]); at iNOS; on iNOS (setting [14]); against hERG) was more than 10 µM each time. Further, the “off-target hits in the screening” value in [4] was “no off-target hits and none”. In addition, the half-life in “in vitro [6]” came to 22.4 min; in the data set “in vitro [7]” it was 11.6 min; in “in vitro [8]”, 39.8 min; in “in vitro [9]”, 12.4 min; in the data set “in vitro [10]” it was 37.4 min.

As to `COc1ccc2c3c1O[C@@H]1C(F)CCC4[C@H](C2)N(C(=O)Cc2ccccc2)CC[C@]341` (stereo partly drawn) [XT-211], the IC50 (in data set [3] (setting [12]); in [3] (setting [13]); against hERG) was more than 10 µM in each case. Also, the “off-target hits in the screening” value in data set [4] was “no off-target hits and none”. Besides, the half-life is 19 min in “in vitro [6]”; 11.9 min in the data set “in vitro [7]”; 19.1 min in “in vitro [8]”; 12.9 min in the data set “in vitro [9]”; 32.5 min in “in vitro [10]”.

Consider `COc1ccc2c3c1O[C@@H]1C(F)CCC4[C@H](C2)N(S(=O)(=O)C2CC2)CC[C@]341` (stereo partly drawn) [XT-212], for which the IC50 (in data set [3] (setting [12]); in data set [3] (setting [13]); against hERG) was more than 10 µM throughout. For the same molecule, the “off-target hits in the screening” value in data set [4] was “no off-target hits and none”. In addition, the half-life in the data set “in vitro [6]” turned out to be 19.8 min; in the data set “in vitro [7]” it was 14.4 min; in the data set “in vitro [8]”, 86.4 min; in “in vitro [9]” it was 21.2 min; in the data set “in vitro [10]” it was 61.2 min. Further, the “parent duration in human hepatocytes relative to XT-203” value in the data set with Human hepatocytes is “longer parent duration than XT-203”.

Broadly, the inhibition is the percentage by which the read-out fell short of the control. Take `COc1ccc2c3c1O[C@@H]1C(F)CCC4[C@H](C2)N(C2CC2)CC[C@]341` (stereo partly drawn) [XT-214]: the IC50 (in data set [3] (setting [12]); in data set [3] (setting [13]); at hERG) was more than 10 µM in each case. For the same molecule, the “off-target hits in the screening” value in data set [4] is reported as “one off-target hit”. This molecule also had an inhibition at 10 µM against Adrenergic α2A of 51%. Moreover, the half-life came out at 18.7 min in the data set “in vitro [6]”; 11.8 min in the data set “in vitro [7]”; 37.7 min in the data set “in vitro [8]”; 14.1 min in “in vitro [9]”; 52.9 min in the data set “in vitro [10]”.

Consider `COc1ccc2c3c1O[C@@H]1C(F)CCC4[C@H](C2)N(S(=O)(=O)Cc2ccccc2)CC[C@]341` (stereo partly drawn) [XT-217], for which the IC50 (in data set [3] (setting [12]); in [3] (setting [13]); against hERG) was more than 10 µM throughout. In addition, the “off-target hits in the screening” value in data set [4] is “two off-target hits”. Besides, the inhibition at 10 µM was 61% on Adenosine A2A and 56% on Cannabinoid CB1. Moreover, the half-life is 9.2 to 14.1 min in [5]; 12.6 min in “in vitro [6]”; 10.2 min in the data set “in vitro [7]”; 9.7 min in the data set “in vitro [8]”; 9.2 min in the data set “in vitro [9]”; 14.1 min in the data set “in vitro [10]”.

For `NCC1(CC(=O)O)CCCCC1` [gabapentin, reference compound], in data set [11], the “reversal of mechanical allodynia, positive control” value is reported as “reversals of allodynia”.

Source of the values: US11505556B2, “Halogenated derivatives of morphinans and uses thereof” (Xalud Therapeutics, Inc., priority 2017, dated 2022).
